# Calls of active or inactive are those of the source. The rule behind the calls is not given here.
# Legend:
# BV-2 [1] = experiment: Antiinflammatory activity in LPS stimulated mouse BV-2 cells assessed as reduction in IL-1beta expression at 0.5 to 2 uM pretreated with compound for 1 hr followed by LPS stimulation and measured after 24 hrs by qRT-PCR analysis; type: functional, cell-based; conditions: dose 0.5-2 µM, time 25.0 hrs
# Mus musculus [2] = experiment: Downregulation of IDO1 expression in hippocampus of LPS induced mouse at 20 mg/kg, ip pretreated with compound administered once daily for 2 days followed by LPS injection by Western blotting analysis; type: functional, organism-based; conditions: time 2.0 day
# Mus musculus [3] = experiment: Downregulation of kynurenine level in brain of LPS induced mouse at 20 mg/kg, ip pretreated with compound administered once daily for 2 days followed by LPS injection by UHPLC-HRMS analysis; type: functional, organism-based; conditions: time 2.0 day
# BV-2 [4] = experiment: Antiinflammatory activity in LPS stimulated mouse BV-2 cells assessed as increase in IL-10 expression at 0.5 to 2 uM pretreated with compound for 1 hr followed by LPS stimulation and measured after 24 hrs by qRT-PCR analysis; type: functional, cell-based; conditions: dose 0.5-2 µM, time 25.0 hrs
# [5] = Volume of distribution at steady state in C57BL/6J mouse at 20 mg/kg, iv measured up to 24 hrs by LC-MS/MS analysis; type: ADME, organism-based; conditions: in vivo, read-out: Vdss
# Mus musculus [6] = experiment: Downregulation of kynurenine level in serum of LPS induced mouse at 20 mg/kg, ip pretreated with compound administered once daily for 2 days followed by LPS injection by UHPLC-HRMS analysis; type: functional, organism-based; conditions: time 2.0 day
# Mus musculus [7] = experiment: Antiinflammatory activity in LPS induced mouse assessed as rescue of increase in IDO1 expression in activated microglia at 20 mg/kg, ip pretreated with compound administered once daily for 2 days followed by LPS injection by immunofluorescence analysis; type: functional, organism-based; conditions: time 2.0 day
# [8] = Apparent volume of distribution in C57BL/6J mouse at 20 mg/kg, […] measured up to 24 hrs by LC-MS/MS analysis; type: ADME, organism-based; conditions: in vivo, read-out: Vz
# BV-2 [9] = experiment: Antiinflammatory activity in LPS stimulated mouse BV-2 cells assessed as reduction in COX2 expression at 0.5 to 2 uM pretreated with compound for 1 hr followed by LPS stimulation and measured after 24 hrs by qRT-PCR analysis; type: functional, cell-based; conditions: dose 0.5-2 µM, time 25.0 hrs
# [10] = Acute toxicity in mouse assessed as pathological changes in heart at 10 to 20 mg/kg, ip administered once daily for 20 days by hematoxyin-eosin staining based analysis; type: organism-based; conditions: in vivo, 480 h, dose 10-20 mg/kg, time 20 day
smiles,measurement,setting,value
c1ccc2c(c1)[nH]c1c(-c3c[nH]cn3)nccc12,Activity,BV-2 [1],Active
same,Activity,Mus musculus [2],Active
same,Activity,Mus musculus [3],Active
same,Activity,BV-2 [4],Active
same,Vd,[5],4.35 L/kg
same,Activity,Mus musculus [6],Active
same,Activity,Mus musculus [7],Active
same,Vd,[8],7.84 L/kg
same,Activity,BV-2 [9],Active
same,Activity,[10],Non-Toxic

# Source: ChEMBL document CHEMBL5137086, “Discovery of 1-(Hetero)aryl-β-carboline Derivatives as IDO1/TDO Dual Inhibitors with Antidepressant Activity” (J Med Chem, 2022)
